Source: patent publication US8492391B2, “Substituted 6-(2-hydroxybenzylamino)purine derivatives, their use as medicaments and compositions containing these derivatives” (Univerzita Palackeho V Olomouci, priority 2009, dated 2013)
“Also recorded” adds a separate entry of the source.

Assays:
p53 = experiment: p53-dependent transcription, β-galactosidase reporter in Arn8 cells; assay type: cell-based, human; set-up: key to p53 (effect): induction of p53 protein: ++: very strong; +: weak; −: no effect
Text: Protein p53, accumulated in nuclei upon treatment by the compounds, then leads to trans-activation of natural cell cycle inhibitor p21^WAF1, further blocking the cell cycle. […] This allows qualitative as well as quantitative measurement of CDK inhibitors-induced p53 transcriptional activity via β-galactosidase assay. Then, the effect will be verified in treated cells by immunoblotting of proteins expressed under the control of p53. β-galactosidase activity of human melanoma cell line Arn8 was determined as described. […] Alternatively, β-galactosidase activity was quantified by measuring fluorescence of methylumbelliferyl-β-D-galactopyranoside cleavage product. Cell lines established from the human breast carcinoma (MCF-7) and the human melanoma (Arn8) cell lines were cultured in Dubecco's Modified Eagle Medium (DMEM) supplemented with 10% foetal bovine serum.
Effects of prepared compounds on activation of p53 protein were analysed in human melanoma cell line Arn8. […] The total β-galactosidase activity in Arn8 cells was quantified using a fluorimetric assay.

[1] = test system: K562 (human chronic myelogenous leukaemia); experiment: Calcein AM cytotoxicity assay, K562; assay type: cell-based; conditions: Homo sapiens, read-out: Cytotoxic activity IC50 (μM) K562
Text: (§1) Cytotoxicity of the compounds is the major property determining their anticancer effect in vivo. One of the parameters used, as the basis for cytotoxicity assays, is the metabolic activity of viable cells. For example, a microtiter assay, which uses the Calcein AM, is now widely used to quantitate cell proliferation and cytotoxicity. For instance, this assay is used in drug screening programs and in chemosensitivity testing. Because only metabolically active cells cleave Calcein AM, these assays detect viable cells exclusively. The quantity of cleaved Calcein AM corresponds to the number of vital cells in the culture. We have been using the following cell lines: MCF7 (human breast adenocarcinoma), K562 (human chronic myelogenous leukaemia), HOS (human osteogenic sarcoma), HeLa (human cervical carcinoma), HL 60 (human promyelocytic leukaemia), G 361 (human malignant melanoma), CEM (human lymphoblastoid leukaemia). All cell lines were grown in DMEM medium (Gibco BRL) supplemented with 10% (v/v) fetal bovine serum and L-glutamine and maintained at 37° C. in a humidified atmosphere with 5% CO2. For cytotoxicity assays, 10^4 cells were seeded into each well of 96 well plate, allowed to stabilize for at least 2 h and then tested compounds were added at various concentrations ranging from 100 to 0.1 μM in triplicates. Three days after drug addition Calcein AM solution (Molecular Probes) was added and let to enter the cells for 1 hour. Fluorescence of viable cells was quantified using Fluoroskan Ascent (Microsystems).

[2] = test system: C-terminal domain of RNA polymerase II (serine 2 and serine 5 phosphorylation); experiment: Immunoblotting of RNA polymerase II CTD phosphorylation (CDK9 activity in cells), MCF-7; assay type: cell-based, human; conditions: MCF-7 cells
Description: Effect of compounds on CDK9 activity in cells was monitored by site-specific phosphorylations of C-terminal domain of RNA polymerase II, a substrate of CDK9, by means of immunoblotting. For immunoblotting, cell were detached with rubber policeman and washed three times with ice-cold PBS and lysed in buffer (50 mM Tris, pH 7.4, 250 mM NaCl, 5 mM EDTA, 50 mM NaF, 1 mM Na3VO4, 1% Nonidet P40) containing mixture of protease and phosphatase inhibitors (Sigma-Aldrich, USA). 20 μg of total proteins were separated by SDS-polyacrylamide gel electrophoresis (SDS-PAGE) and transferred onto nitrocellulose membranes. Membranes were blocked in 5% milk and 0.1% Tween 20 in PBS and probed overnight with specific monoclonal antibodies or rabbit polyclonal sera. Primary antibodies specific for RNA polymerase II (all from Santa Cruz Biotechnology, California, USA) included: (i) N-20 used at 1 μg/ml, (ii) H14, specific for form phosphorylated at phosphoserine 5, used at 6 μg/ml and (iii) H5, specific for form phosphorylated at phosphoserine 2 used at 4 μg/ml. […] All primary antibodies were diluted in PBS containing 5% powdered milk; 0.1% Tween 20. Peroxidase conjugated rabbit anti-mouse immunoglobulin or porcine anti-rabbit immunoglobulin antisera (DAKO, Denmark) were used as the secondary antibodies and visualised with ECL reagents (Amersham-Pharmacia, Little Chalfont, UK). […]

P388D1 leukemia = experiment: Survival model of P388D1 leukemia transplanted intraperitoneally; assay type: in vivo, DBA-2 mice; conditions: 250 mg/kg orally twice daily, Days 1-3 and 7-9
Description: Screening of biological activity of compound 128 was performed on survival model of P388D1 leukemia transplanted intraperitoneally with 2.10^5 cells. DBA-2 mice were used as a host. One day following the leukemia transplantation, treatment with 128 was initiated. The drug was given orally by gastric gavages in total volume of 200 μl/dose twice daily at dose 250 mg/kg in two chemotherapy cycles (Days 1-3 and 7-9). The compound 128 was solubilized in 5% N-methyl-2-pyrollidine, 30% polyethylene glycol 400, 65% tartar buffer (pH 3.0). Survival analysis of treated animals (10 mice/group) was preformed in comparison with vehicle treated mice using Kaplan-Meier method and the significance was evaluated by the log-rank test. Body weight of experimental animals was evaluated in parallel in order to reflect toxicity and efficacy of therapy. Comparative analysis of body weight was performed using non-parametric t-test.

[3] = test system: MCF7 (human breast adenocarcinoma); experiment: Calcein AM cytotoxicity assay, MCF7; assay type: cell-based
Text: as §1

Structure (SMILES): CCC(CO)Nc1nc(NCc2cccc(OC)c2O)c2ncn(C(C)C)c2n1 (racemic) [Compound 128, (RS)-2-({6-[(2-hydroxy-3-methoxybenzyl)amino]-9-isopropyl-9-H-purin-2-yl}amino)butan-1-ol]
- p53 (effect): induction of p53 protein (p53; Arn8 cells stable transfected with a β-galactosidase reporter gene): ++
- total β-galactosidase activity (p53; Arn8 cells, 5 μM, 12 and 24 hours after treatment, vs DMSO control): strong activity of β-galactosidase
- p53 (peak concentration in μM) (p53; Arn8 cells, concentration inducing maximum of β-galactosidase activity): 8.0 µM
- activation of p53-dependent transcription (p53; Arn8 reporter cell line, β-galactosidase reporter activity): proved to activate p53-dependent transcription
- IC50 [1]: 15.5 µM
- levels of serine 2 and serine 5 phosphorylation of RNA polymerase II CTD [2]: substantially reduced; also recorded: is inhibited
- body weight of treated animals (P388D1 leukemia): reducing body weight of treated animals
- mean survival time (P388D1 leukemia): 27.4 days
- survival (Kaplan-Meier, log-rank test) (P388D1 leukemia; vs vehicle, P=0.0427): significantly better survival
- IC50 ([3]; Homo sapiens, MCF7, read-out: Cytotoxic activity IC50 (μM) MCF7): 5 µM
- number of viable cells (antiproliferative activity) ([3]; MCF7, 72 h): significantly reduces the number of living cells
